Assay results published in ChEMBL document CHEMBL1201862, “PubChem BioAssay data set” (2004).
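Exposure lasted 48 hours, with cells grown in 96-well plates and compounds tested at five concentrations. GI50 = concentration required for 50% inhibition of growth.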 Active and inactive are the calls of the source. Cut-off read from the data, not from the text of the source: active = GI50 up to about 1.1 µM and inactive = higher.

Key:
Assay in all cases: inhibition of tumour cell growth, NCI panel, 48 h
[1] = test system: SF-295
[2] = test system: SR
[3] = test system: NCI-H226
[4] = test system: Hs-578T
[5] = test system: A498
[6] = test system: EKVX
[7] = test system: HCT-116
[8] = test system: SNB-19
[9] = test system: MOLT-4
[10] = test system: OVCAR-4
[11] = test system: NCI-H23
[12] = test system: HL-60
[13] = test system: NCI-H522
[14] = test system: SK-MEL-5
[15] = test system: LOX IMVI
[16] = test system: HOP-62
[17] = test system: SNB-75
[18] = test system: SK-OV-3
[19] = test system: UACC-257
[20] = test system: KM12

Measured: GI50

O=C(O)CCc1nc2c(n1-c1ccccc1)C(=O)c1ccccc1C2=O
inactive: [1] > 100 µM | [2] > 100 µM | [3] > 100 µM | [4] > 100 µM | [5] > 100 µM | [6] > 100 µM | [7] 50.2 µM | [8] > 100 µM | [9] > 100 µM | [10] > 100 µM | [11] > 100 µM | [12] > 100 µM | [13] 38.5 µM | [14] > 100 µM | [15] 70.5 µM | [16] > 100 µM | [17] > 100 µM | [18] > 100 µM | [19] > 100 µM | [20] > 100 µM

CCOc1ccc2nc(NC(=O)/C(CC(=O)CC(C3=C(O)c4ccccc4CC3=O)c3ccccc3)=N\O)sc2c1 (centres undefined)
inactive: [1] > 100 µM | [2] > 100 µM | [3] > 100 µM | [4] > 100 µM | [5] > 100 µM | [6] > 100 µM | [7] > 100 µM | [8] > 100 µM | [9] > 100 µM | [10] > 100 µM | [11] > 100 µM | [12] > 100 µM | [13] > 100 µM | [14] > 100 µM | [15] > 100 µM | [17] 52.1 µM | [18] > 100 µM | [19] > 100 µM | [20] > 100 µM

CC(C)(C)c1ccc(C(O)(c2ccc(C(C)(C)C)cc2)c2ccc(C(C)(C)C)cc2)cc1
inactive: [1] > 100 µM | [2] > 100 µM | [3] > 100 µM | [4] 70.5 µM | [5] > 100 µM | [6] > 100 µM | [7] > 100 µM | [8] > 100 µM | [9] > 100 µM | [10] > 100 µM | [11] > 100 µM | [12] > 100 µM | [13] > 100 µM | [14] > 100 µM | [15] > 100 µM | [16] > 100 µM | [17] > 100 µM | [18] > 100 µM | [20] > 100 µM

COc1cc(C2c3cc4c(cc3OC(O)C2C)OCO4)cc(OC)c1OC (centres undefined)
inactive: [6] 1.53 µM | [10] 2.8 µM | [19] 9.68 µM
active: [1] 0.324 µM | [2] 0.2 µM | [3] 0.708 µM | [4] 0.31 µM | [5] 0.483 µM | [7] 0.349 µM | [8] 0.434 µM | [9] 0.473 µM | [11] 0.59 µM | [12] 0.172 µM | [13] 0.207 µM | [14] 0.272 µM | [15] 0.69 µM | [16] 0.306 µM | [17] 0.244 µM | [18] 0.414 µM | [20] 0.347 µM

CC(NC1=NCCO1)c1ccsc1 (centres undefined)
inactive: [1] 17.8 µM | [2] 24.8 µM | [3] 58.1 µM | [4] 11.5 µM | [5] > 100 µM | [6] 54.7 µM | [7] 16.4 µM | [8] 37.3 µM | [9] 22.7 µM | [10] 24.9 µM | [11] 64.4 µM | [12] 21.5 µM | [13] 17.7 µM | [14] 20 µM | [15] 20.3 µM | [17] 13.2 µM | [18] 71.8 µM | [19] 14.4 µM | [20] 18.8 µM

CN(C)c1ccc(/C=C2\C[C@H]3[C@@H]4CCc5cc(OCCN6CCCC6)ccc5[C@H]4CC[C@]3(C)[C@H]2O)cc1
inactive: [1] 13.1 µM | [2] 3.29 µM | [3] 18.7 µM | [4] 21.8 µM | [5] 17.8 µM | [6] 15 µM | [7] 2.71 µM | [8] 18.7 µM | [9] 9.48 µM | [10] 16.3 µM | [11] 15.1 µM | [12] 18.9 µM | [13] 4.26 µM | [14] 9.66 µM | [15] 7.08 µM | [16] 15.1 µM | [17] 13.8 µM | [18] 16.6 µM | [19] 6.11 µM | [20] 5.71 µM

COc1cccc(Nc2nc(N)nc(N)c2N)c1
inactive: [1] 29.7 µM | [2] 24 µM | [3] > 100 µM | [4] > 100 µM | [5] > 100 µM | [6] > 100 µM | [7] 22.2 µM | [8] > 100 µM | [9] 15.4 µM | [10] > 100 µM | [11] 33.4 µM | [12] 24.2 µM | [13] 30 µM | [14] 30.3 µM | [15] 21.4 µM | [16] 29.3 µM | [17] > 100 µM | [18] > 100 µM | [19] > 100 µM | [20] > 100 µM

Oc1c(C(O)(c2ccccc2)c2ccc3ccccc3c2O)ccc2ccccc12
inactive: [1] 16.5 µM | [2] 1.26 µM | [3] 18.8 µM | [4] 7.03 µM | [5] 16.1 µM | [6] 11.4 µM | [7] 7.76 µM | [8] 14.2 µM | [9] 1.88 µM | [10] 8.93 µM | [11] 5.12 µM | [12] 3.52 µM | [13] 4.01 µM | [14] 5.68 µM | [15] 10.3 µM | [16] 15 µM | [17] 14.7 µM | [18] 17.9 µM | [19] 10.2 µM | [20] 9.38 µM

CCOc1ccc(Nc2nc(N)nc(N)c2N)cc1
inactive: [1] 17.9 µM | [3] 42.2 µM | [4] 18.2 µM | [5] > 100 µM | [6] > 100 µM | [7] 30.7 µM | [8] 25.2 µM | [9] 19.8 µM | [10] 18.4 µM | [11] 26.8 µM | [12] 39.1 µM | [13] 26 µM | [14] 61.5 µM | [15] 36.2 µM | [16] 24.7 µM | [17] 20.6 µM | [18] > 100 µM | [19] > 100 µM | [20] 23.7 µM
active: [2] 0.472 µM

O=C1Nc2ccccc2/C1=N/Nc1ccc([N+](=O)[O-])cc1[N+](=O)[O-]
inactive: [1] 8.77 µM | [2] 25.6 µM | [3] 12 µM | [4] 6.37 µM | [5] 22.4 µM | [6] 1.5 µM | [7] 17.9 µM | [8] 19.4 µM | [9] > 100 µM | [10] 10 µM | [11] 12.4 µM | [12] > 100 µM | [13] 12.9 µM | [14] 10.6 µM | [15] 6.78 µM | [16] 9.04 µM | [17] 18.7 µM | [18] 12.1 µM | [19] 8.49 µM | [20] 13.6 µM

CCOC(=O)C1Cc2c(cc3c4c(cccc24)N(C(C)=O)C3)N(C)C1 (centres undefined)
active: [13] 0.0681 µM
inactive: [1] 8.26 µM | [2] 41.6 µM | [3] 2.9 µM | [4] 2.49 µM | [5] > 100 µM | [6] 9.59 µM | [7] 3.67 µM | [8] > 100 µM | [9] 4.02 µM | [10] 84.9 µM | [11] > 100 µM | [12] 11.3 µM | [14] > 100 µM | [15] 6.35 µM | [16] > 100 µM | [17] 24.2 µM | [18] 71.8 µM | [19] 39 µM | [20] 4.17 µM

Cn1c2n/c(=N\c3ccc(Cl)cc3)[n+]3ccc4ccccc4c3c-2c([O-])n1-c1ccccc1
inactive: [1] > 100 µM | [2] > 100 µM | [3] > 100 µM | [4] > 100 µM | [5] > 100 µM | [6] > 100 µM | [7] > 100 µM | [8] > 100 µM | [9] > 100 µM | [10] > 100 µM | [11] > 100 µM | [12] > 100 µM | [13] > 100 µM | [14] > 100 µM | [15] > 100 µM | [16] > 100 µM | [17] > 100 µM | [19] > 100 µM | [20] 42.9 µM

CC(=O)O[C@@H]1[C@@H](C)[C@]2(CC(c3ccoc3)OC2O)C2CCC3O[C@]3(C)[C@]2(C)[C@@H]1OC(C)=O (some centres undefined)
inactive: [1] 71.6 µM | [2] 23.4 µM | [3] 27.7 µM | [4] 48.5 µM | [5] 95.1 µM | [6] 56.4 µM | [7] 33.7 µM | [8] > 100 µM | [9] 19.1 µM | [10] 12.5 µM | [11] 37.4 µM | [12] 18 µM | [13] 27.9 µM | [14] 25.4 µM | [15] 22.3 µM | [17] 46.7 µM | [18] > 100 µM | [19] 29.4 µM | [20] 23.8 µM

COC(=O)C1C(O)CCC2CN3CCc4c([nH]c5cccc(OC)c45)C3CC21 (centres undefined)
inactive: [1] > 100 µM | [2] > 100 µM | [3] > 100 µM | [4] > 100 µM | [5] > 100 µM | [6] > 100 µM | [7] > 100 µM | [8] > 100 µM | [9] > 100 µM | [10] > 100 µM | [11] > 100 µM | [12] > 100 µM | [13] > 100 µM | [15] > 100 µM | [16] > 100 µM | [17] > 100 µM | [18] > 100 µM | [19] > 100 µM | [20] > 100 µM
